In data set [1] the test system is NCI-H1975. Kind of data set: Cytotoxicity against human NCI-H1975 cells assessed as inhibition of cell viability incubated for 48 hrs by MTT assay. Type of data set: functional, cell-based. Conditions: NCI-H1975, 48 h.
Data set [2] has as its system MCF7. Kind of data set: Cytotoxicity against human MCF7 cells assessed as inhibition of cell viability incubated for 48 hrs by MTT assay. It is filed as functional, cell-based. The settings on record: MCF7, 48 h.
Data set [3] has as its system A549. Nature of the data set: Cytotoxicity against human A549 cells assessed as inhibition of cell viability incubated for 48 hrs by MTT assay. Type of data set: functional, cell-based. The settings on record: A549, 48 h.
The test system of data set [4] is NCI-H460. Nature of the data set: Cytotoxicity against human NCI-H460 cells assessed as inhibition of cell viability incubated for 48 hrs by MTT assay. It is filed as functional, cell-based. The settings on record: NCI-H460, 48 h.
A short description of data set [5]: Cytotoxicity against human BEAS-2B cells assessed as inhibition of cell viability incubated for 48 hrs by MTT assay. Type of data set: toxicity, cell-based.
A short description of data set [6]: Drug accumulation in mitochondria of human NCI-H1975 cells at 120 nM incubated for 5 hrs by Red CMXRos probe based analysis. It is filed as ADME. The settings on record: nci-h1975, 5 h, 0.12 µM.
Data set [7] relates to NCI-H1975. Kind of data set: Inhibition of cell viability in human NCI-H1975 cells assessed as effect on cell index at 80 nM by real-time cell analysis. Type of data set: functional, cell-based.
The test system of data set [8] is MCF7. Kind of data set: Cytotoxicity against human MCF7 cells assessed as cell growth inhibition incubated for 48 hrs by MTT assay. Type of data set: functional, cell-based.
Data set [9] has as its system A549. Nature of the data set: Cytotoxicity against human A549 cells assessed as cell growth inhibition incubated for 48 hrs by MTT assay. It is filed as functional, cell-based.
Data set [10] relates to NCI-H460. Nature of the data set: Cytotoxicity against human NCI-H460 cells assessed as cell growth inhibition incubated for 48 hrs by MTT assay. Type of data set: functional, cell-based.
Data set [11] concerns NCI-H1975. Nature of the data set: Cytotoxicity against human NCI-H1975 cells assessed as cell growth inhibition incubated for 48 hrs by MTT assay. It is filed as functional, cell-based.
Another data set has as its system BEAS-2B. Nature of the data set: Cytotoxicity against human BEAS-2B cells assessed as cell growth inhibition incubated for 48 hrs by MTT assay. It is filed as toxicity, cell-based.
Data set [12] relates to NCI-H1975. Nature of the data set: Cytotoxicity against human NCI-H1975 cells assessed as cell growth inhibition incubated for 48 hrs by MTT assay relative to control. Type of data set: functional.

Active and inactive are the calls of the source. No cut-off for these calls is given here.

Regarding `CC(C)[C@]12O[C@H]1[C@@H]1O[C@]13[C@]1(O[C@H]1C[C@H]1C4=C(CC[C@@]13C)C(=O)OC4)[C@@H]2OC(=O)CCCCCCCCC[n+]1ccc(/C=C/c2c[nH]c3ccccc23)cc1`, the IC50 came to 0.44 µM in the data set on NCI-H1975 [1], 6.24 µM with MCF7 [2], 24.9 µM with A549 [3] and 5.09 µM with NCI-H460 [4]. Further, the IC50 at 48 h in data set [5] was 11.9 µM.

Turning to `CC(C)[C@]12O[C@H]1[C@@H]1O[C@]13[C@]1(O[C@H]1C[C@H]1C4=C(CC[C@@]13C)C(=O)OC4)[C@@H]2OC(=O)CCCCCC[n+]1ccc(/C=C/c2c[nH]c3ccccc23)cc1`, the figures for the concentration for half-maximal inhibition (IC50) with NCI-H1975 [1], with A549 [3] and in the data set on NCI-H460 [4] were 0.27 µM, 47.8 µM and 11.9 µM, respectively. In addition, in data set [5], the IC50 at 48 h was 27.9 µM.

Take `CC(C)[C@]12O[C@H]1[C@@H]1O[C@]13[C@]1(O[C@H]1C[C@H]1C4=C(CC[C@@]13C)C(=O)OC4)[C@]2(O)COC(=O)CCCCC[P+](c1ccccc1)(c1ccccc1)c1ccccc1`: the IC50 is > 100 µM in the data set on NCI-H1975 [1], > 50 µM in the data set on MCF7 [2], > 100 µM in the data set on A549 [3] and > 50 µM with NCI-H460 [4]. Moreover, the IC50 at 48 h in [5] was > 50 µM.

`CC(C)[C@]12O[C@H]1[C@@H]1O[C@]13[C@]1(O[C@H]1C[C@H]1C4=C(CC[C@@]13C)C(=O)OC4)[C@]2(O)C=O`: the IC50 with NCI-H1975 [1] was > 50 µM; with MCF7 [2], > 100 µM; in the data set on A549 [3], > 100 µM; with NCI-H460 [4], > 50 µM. Further, the IC50 at 48 h in data set [5] is > 100 µM.

Turning to `CC(C)[C@]12O[C@H]1[C@@H]1O[C@]13[C@]1(O[C@H]1C[C@H]1C4=C(CC[C@@]13C)C(=O)OC4)[C@@H]2OC(=O)CCCCCCCCCC[n+]1ccc(/C=C/c2c[nH]c3ccccc23)cc1`, the IC50 with NCI-H1975 [1] is 0.34 µM; with MCF7 [2], 5.26 µM; with A549 [3], > 50 µM. The IC50 at 48 h in data set [5] came to 12.7 µM.

In the case of `CC(C)[C@]12O[C@H]1[C@@H]1O[C@]13[C@]1(O[C@H]1C[C@H]1C4=C(CC[C@@]13C)C(=O)OC4)[C@@H]2OC(=O)CCCCCCC[n+]1ccc(/C=C/c2c[nH]c3ccccc23)cc1.[Br-]`, the IC50 with NCI-H1975 [1] is 0.4 µM; with MCF7 [2] it was 7.09 µM; in the data set with A549 [3], > 50 µM; in the data set on NCI-H460 [4] it was 17.5 µM. Besides, the Drug uptake entry in data set [6] is given as “Active”. Also, in [5], the IC50 at 48 h was determined as 48.8 µM. The inhibition result in the data set on NCI-H1975 [7] is “Active”.

For `CC(C)[C@]12O[C@H]1[C@@H]1O[C@]13[C@]1(O[C@H]1C[C@H]1C4=C(CC[C@@]13C)C(=O)OC4)[C@@H]2OC(=O)CCCCC[n+]1ccc(/C=C/c2c[nH]c3ccccc23)cc1`, the half-inhibitory concentration (IC50) in the data set on NCI-H1975 [1] is 2.86 µM; in the data set with MCF7 [2], 16.7 µM; in the data set on A549 [3], > 50 µM; in the data set with NCI-H460 [4], 3.12 µM. The IC50 at 48 h in data set [5] is 94.3 µM.

`CC(C)[C@]12O[C@H]1[C@@H]1O[C@]13[C@]1(O[C@H]1C[C@H]1C4=C(CC[C@@]13C)C(=O)OC4)[C@]2(O)COC(=O)CCCCCCC[P+](c1ccccc1)(c1ccccc1)c1ccccc1`: the IC50 in the data set on NCI-H1975 [1] was 24.9 µM; in the data set on MCF7 [2], > 100 µM; in the data set on A549 [3], 27.3 µM; in the data set with NCI-H460 [4], 29.9 µM. For the same compound, the IC50 at 48 h in [5] was 21.7 µM.

Consider `CC(C)[C@]12O[C@H]1[C@@H]1O[C@]13[C@]1(O[C@H]1C[C@H]1C4=C(CC[C@@]13C)C(=O)OC4)[C@]2(O)COC(=O)CCCCCC[P+](c1ccccc1)(c1ccccc1)c1ccccc1`, for which the IC50 with NCI-H1975 [1] is > 30 µM; in the data set on MCF7 [2], > 50 µM; in the data set on A549 [3], 38.4 µM; in the data set with NCI-H460 [4], > 50 µM. Further, the IC50 at 48 h in [5] was > 30 µM.

For `C[n+]1ccc(/C=C/c2c[nH]c3ccccc23)cc1`, the IC50 is > 50 µM in the data set with NCI-H1975 [1], > 100 µM in the data set on MCF7 [2], > 100 µM with A549 [3] and > 50 µM in the data set with NCI-H460 [4]. For the same compound, in data set [5], the IC50 at 48 h was > 100 µM.

Regarding `C1=CCC(P(c2ccccc2)c2ccccc2)C=C1` (stereo not given), the IC50 with NCI-H1975 [1], with MCF7 [2], with A549 [3] and in the data set on NCI-H460 [4] was > 100 µM in each case. In addition, the IC50 at 48 h in data set [5] is > 100 µM.

For `CC(C)[C@]12O[C@H]1[C@@H]1O[C@]13[C@]1(O[C@H]1C[C@H]1C4=C(CC[C@@]13C)C(=O)OC4)[C@]2(O)COC(=O)CCCCCCCCC[P+](c1ccccc1)(c1ccccc1)c1ccccc1`, the IC50 with NCI-H1975 [1] turned out to be 18.6 µM; with MCF7 [2], 30.2 µM; in the data set with A549 [3], 23 µM; in the data set with NCI-H460 [4], 26.7 µM. Also, the IC50 at 48 h in [5] came to 23.6 µM.

As to `CC(C)[C@]12O[C@H]1[C@@H]1O[C@]13[C@]1(O[C@H]1C[C@H]1C4=C(CC[C@@]13C)C(=O)OC4)[C@]2(O)COC(=O)CCCC[P+](c1ccccc1)(c1ccccc1)c1ccccc1`, the 50% inhibitory concentration (IC50) with NCI-H1975 [1], with MCF7 [2], in the data set with A549 [3] and with NCI-H460 [4] was > 100 µM in each case. Besides, the IC50 at 48 h in data set [5] is > 100 µM.

With `COc1cccc2c1C(=O)c1c(O)c3c(c(O)c1C2=O)C[C@@](O)(C(=O)CO)C[C@@H]3O[C@H]1C[C@H](N)[C@H](O)[C@H](C)O1` [DOXORUBICIN], the IC50 in the data set with NCI-H1975 [1] is 2.64 µM; with A549 [3], 2.54 µM; in the data set with NCI-H460 [4], 0.581 µM. In addition, the IC50 at 48 h in [5] stood at 42 µM.

`CC(C)[C@]12O[C@H]1[C@@H]1O[C@]13[C@]1(O[C@H]1C[C@H]1C4=C(CC[C@@]13C)C(=O)OC4)[C@]2(O)CO`: the IC50 in the data set on NCI-H1975 [1] is > 100 µM; with MCF7 [2] it was > 100 µM; with A549 [3] it was > 100 µM; in the data set with NCI-H460 [4], > 50 µM. The IC50 at 48 h in [5] was > 100 µM.

Take `CC(C)[C@]12O[C@H]1[C@@H]1O[C@]13[C@]1(O[C@H]1C[C@H]1C4=C(CC[C@@]13C)C(=O)OC4)[C@@H]2OC(=O)CCCC[n+]1ccc(/C=C/c2c[nH]c3ccccc23)cc1`: the IC50 was 5.74 µM with NCI-H1975 [1], 47.2 µM in the data set with MCF7 [2], > 50 µM in the data set with A549 [3] and > 50 µM in the data set with NCI-H460 [4]. In [5], the IC50 at 48 h stood at 35.7 µM.

Turning to `CC(C)[C@]12O[C@H]1[C@@H]1O[C@]13[C@]1(O[C@H]1C[C@H]1C4=C(CC[C@@]13C)C(=O)OC4)[C@]2(O)COC(=O)CCCCCCCC[P+](c1ccccc1)(c1ccccc1)c1ccccc1`, the IC50 in the data set with NCI-H1975 [1] was determined as 24.7 µM; in the data set with MCF7 [2], 20.9 µM; in the data set with A549 [3], 21.7 µM; with NCI-H460 [4], 27.7 µM. Besides, the IC50 at 48 h in data set [5] was 23.4 µM.

With `CC(C)[C@]12O[C@H]1[C@@H]1O[C@]13[C@]1(O[C@H]1C[C@H]1C4=C(CC[C@@]13C)C(=O)OC4)[C@@H]2OC(=O)CCCCC[P+](c1ccccc1)(c1ccccc1)c1ccccc1.[Br-]`, the IC50 is 0.14 µM in the data set with NCI-H1975 [1], > 10 µM in the data set with MCF7 [2], > 10 µM in the data set with A549 [3] and > 10 µM in the data set with NCI-H460 [4]. Also, the inhibition entry with MCF7 [8], with A549 [9], in the data set on NCI-H460 [10] and in the data set on NCI-H1975 [11] was “Dose-Dependent Effect” each time. Also, in the data set with BEAS-2B, the “inhibition (INH)” value is listed as “Dose-Dependent Effect”. Besides, in data set [5], the IC50 at 48 h was > 10 µM. Also, the Imax in the data set on NCI-H1975 [12] is recorded as ~65%.

The values above are taken from ChEMBL document CHEMBL5537157, “Selective Antitumor Effect and Lower Toxicity of Mitochondrion-Targeting Derivatization of Triptolide” (J Med Chem, 2024).
